{"source": "patent US8946215B2", "about": "“Hydroxy-substituted imidazo[1,2-a]pyridinecarboxamides and their use” (Bayer Pharma Aktiengesellschaft, priority 2012, dated 2015)", "note": "Where a name gives a salt, the structure may show the parent alone."}
{"biological_target": "T1, recombinant guanylate cyclase reporter cell line (Rattus norvegicus, UniProt P19686+P20595)", "T1 construct": "expressed in transfected cells", "T1 sequence (P20595 1-619)": "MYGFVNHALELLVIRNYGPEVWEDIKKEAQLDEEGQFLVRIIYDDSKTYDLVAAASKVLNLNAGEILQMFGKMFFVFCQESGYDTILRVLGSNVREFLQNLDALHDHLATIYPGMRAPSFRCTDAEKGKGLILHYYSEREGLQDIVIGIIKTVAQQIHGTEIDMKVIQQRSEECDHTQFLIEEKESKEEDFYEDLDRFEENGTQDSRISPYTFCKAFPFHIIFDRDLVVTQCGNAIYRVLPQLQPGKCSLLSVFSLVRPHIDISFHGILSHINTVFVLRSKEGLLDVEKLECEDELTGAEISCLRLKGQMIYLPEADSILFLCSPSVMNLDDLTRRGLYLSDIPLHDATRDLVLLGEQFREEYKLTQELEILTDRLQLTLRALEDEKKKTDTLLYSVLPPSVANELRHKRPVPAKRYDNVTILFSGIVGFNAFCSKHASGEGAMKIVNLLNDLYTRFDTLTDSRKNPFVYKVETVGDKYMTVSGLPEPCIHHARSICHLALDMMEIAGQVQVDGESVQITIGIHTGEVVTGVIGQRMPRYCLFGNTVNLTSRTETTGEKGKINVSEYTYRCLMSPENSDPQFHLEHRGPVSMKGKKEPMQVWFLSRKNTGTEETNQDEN", "T1 sequence (P19686 1-690)": "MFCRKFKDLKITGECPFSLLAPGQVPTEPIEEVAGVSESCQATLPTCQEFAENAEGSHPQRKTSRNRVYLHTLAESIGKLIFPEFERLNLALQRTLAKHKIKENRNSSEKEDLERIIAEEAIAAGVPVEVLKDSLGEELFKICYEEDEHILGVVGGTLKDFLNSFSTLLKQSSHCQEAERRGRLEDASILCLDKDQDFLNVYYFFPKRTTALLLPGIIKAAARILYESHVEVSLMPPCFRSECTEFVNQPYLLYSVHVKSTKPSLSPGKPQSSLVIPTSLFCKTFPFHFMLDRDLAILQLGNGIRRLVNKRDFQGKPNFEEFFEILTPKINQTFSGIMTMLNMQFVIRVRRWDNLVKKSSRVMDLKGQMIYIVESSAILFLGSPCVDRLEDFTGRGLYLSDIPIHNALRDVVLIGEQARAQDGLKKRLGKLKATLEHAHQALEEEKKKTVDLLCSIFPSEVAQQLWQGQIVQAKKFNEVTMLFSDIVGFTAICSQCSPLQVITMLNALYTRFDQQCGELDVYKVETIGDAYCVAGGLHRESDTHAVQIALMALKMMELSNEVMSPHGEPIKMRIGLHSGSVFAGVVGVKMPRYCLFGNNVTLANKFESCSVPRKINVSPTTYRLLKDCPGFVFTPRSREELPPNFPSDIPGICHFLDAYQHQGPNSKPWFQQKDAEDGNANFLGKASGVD", "test": "Action on recombinant guanylate cyclase reporter cell line", "assay_type": "cell-based", "details": "in some cases mean values obtained from individual determinations", "experimental": "B-2. Action on Recombinant Guanylate Cyclase Reporter Cell Line\nThe cellular action of the compounds according to the invention is determined on a recombinant guanylate cyclase reporter cell line, as described in F. Wunder et al., Anal. Biochem. 339, 104-112 (2005).\nRepresentative values (MEC=minimal effective concentration) for the compounds according to the invention are shown in the following table (in some cases as mean values obtained from individual determinations): […]", "units": {"MEC (minimal effective concentration)": "µM"}}
{"smiles": "Cc1nc2c(OCC3CCC3)cccn2c1C(=O)NCCC1(O)CCCC1", "note": "[Example 97, 8-(cyclobutylmethoxy)-N-[2-(1-hydroxycyclopentyl)ethyl]-2-methylimidazo[1,2-a]pyridine-3-carboxamide]", "MEC (minimal effective concentration)": 1.0}
{"smiles": "Cc1nc2c(OCc3c(F)cccc3F)cc(Cl)cn2c1C(=O)N[C@@H](CO)CCCO", "note": "[Example 127, 6-Chloro-8-[(2,6-difluorobenzyl)oxy]-N-[(2R)-1,5-dihydroxypentan-2-yl]-2-methylimidazo[1,2-a]-pyridine-3-carboxamide]", "MEC (minimal effective concentration)": 0.3}
{"smiles": "CCCC[C@H](CO)NC(=O)c1c(C)nc2c(OCc3ccccc3F)cccn12", "note": "[Example 5]", "MEC (minimal effective concentration)": 0.1}
{"smiles": "Cc1nc2c(OCc3c(F)cccc3F)cccn2c1C(=O)NC(CO)c1ccc(F)cc1", "note": "(racemic) [Example 103, rac-8-[(2,6-difluorobenzyl)oxy]-N-[1-(4-fluorophenyl)-2-hydroxyethyl]-2-methylimidazo[1,2-a]pyridine-3-carboxamide trifluoroacetate]", "MEC (minimal effective concentration)": 0.1}
{"smiles": "CCCc1nc2c(OCC3CCCCC3)cccn2c1C(=O)N[C@@H](C)CO", "note": "[Example 57, 8-(cyclohexylmethoxy)-N-[(2S)-1-hydroxypropan-2-yl]-2-propylimidazo[1,2-a]-pyridine-3-carboxamide]", "MEC (minimal effective concentration)": 1.0}
{"smiles": "Cc1nc2c(OCc3c(F)cccc3F)cccn2c1C(=O)NCC(O)C(F)(F)F", "note": "(single isomer, unassigned; ent-8) [Example 109, ent-8-[(2,6-Difluorobenzyl)oxy]-2-methyl-N-(3,3,3-trifluoro-2-hydroxypropyl)imidazo[1,2-a]-pyridine-3-carboxamide]", "MEC (minimal effective concentration)": 0.1}
{"smiles": "Cc1nc2c(OCc3c(F)cccc3F)cccn2c1C(=O)N[C@@H](CO)CCO", "note": "[Example 129, 8-[(2,6-difluorobenzyl)oxy]-N-[(2R)-1,4-dihydroxybutan-2-yl]-2-methylimidazo[1,2-a]pyridine-3-carboxamide]", "MEC (minimal effective concentration)": 3.0}
{"smiles": "Cc1nc2c(OCc3c(F)cccc3F)cccn2c1C(=O)N[C@@H](CO)C(C)(C)O", "note": "[Example 165, 8-[(2,6-Difluorobenzyl)oxy]-N-[(2S)-3-dihydroxy-3-methylbutan-2-yl]-2-methylimidazo[1,2-a]-pyridine-3-carboxamide]", "MEC (minimal effective concentration)": 1.0}
{"smiles": "Cc1nc2c(OCc3c(F)cccc3F)cccn2c1C(=O)NC(CO)c1ccc(S(C)(=O)=O)cc1", "note": "(racemic) [Example 120, rac-8-[(2,6-difluorobenzyl)oxy]-N-{2-hydroxy-1-[4-(methylsulphonyl)phenyl]ethyl}-2-methylimidazo[1,2-a]pyridine-3-carboxamide]", "MEC (minimal effective concentration)": 1.0}
{"smiles": "Cc1nc2c(OCC3CCCCC3)cccn2c1C(=O)NCCOCCO", "note": "[Example 86, 8-(cyclohexylmethoxy)-N-[2-(2-hydroxyethoxy)ethyl]-2-methylimidazo[1,2-a]-pyridine-3-carboxamide]", "MEC (minimal effective concentration)": 0.65}
{"smiles": "Cc1nc2c(OCc3cccc(Cl)c3Cl)cccn2c1C(=O)NC(CO)CO", "note": "[Example 49, 8-[(2,3-dichlorobenzyl)oxy]-N-(1,3-dihydroxypropan-2-yl)-2-methylimidazo[1,2-a]-pyridine-3-carboxamide]", "MEC (minimal effective concentration)": 2.0}
{"smiles": "Cc1cc(OCCC(C)C)c2nc(C)c(C(=O)NC(CCCC(F)(F)F)C(C)(C)O)n2c1", "note": "(single isomer, unassigned; ent-2) [Example 168, ent-2,6-Dimethyl-8-(3-methylbutoxy)-N-(7,7,7-trifluoro-2-hydroxy-2-methylheptan-3-yl)imidazo-[1,2-a]pyridine-3-carboxamide]", "MEC (minimal effective concentration)": 3.0}
{"smiles": "Cc1cccc(COc2cccn3c(C(=O)NC(CO)CO)c(C)nc23)c1Cl", "note": "[Example 52, 8-[(2-chloro-3-methylbenzyl)oxy]-N-(1,3-dihydroxypropan-2-yl)-2-methylimidazo[1,2-a]-pyridine-3-carboxamide]", "MEC (minimal effective concentration)": 10}
{"smiles": "Cc1nc2c(OCc3c(F)cccc3F)cccn2c1C(=O)NC(CCCC(F)(F)F)C(C)(C)O", "note": "(racemic) [Example 150, rac-8-[(2,6-difluorobenzyl)oxy]-2-methyl-N-(7,7,7-trifluoro-2-hydroxy-2-methylheptan-3-yl)imidazo[1,2-a]pyridine-3-carboxamide]", "MEC (minimal effective concentration)": 0.03}
{"smiles": "CCCCC(NC(=O)c1c(C)nc2c(OC(C)c3c(F)cccc3F)cc(C)cn12)C(C)(C)O", "note": "(single isomer, unassigned; ent-8) [Example 171, ent-8-[1-(2,6-Difluorophenyl)ethoxy]-N-(2-hydroxy-2-methylheptan-3-yl)-2,6-dimethylimidazo-[1,2-a]pyridine-3-carboxamide]", "MEC (minimal effective concentration)": 1.0}
{"smiles": "CC[C@H](C)[C@@H](CO)NC(=O)c1c(C)nc2c(OCC3CCCCC3)cccn12", "note": "[Example 91, 8-(cyclohexylmethoxy)-N-[(2S,3S)-1-hydroxy-3-methylpentan-2-yl]-2-methylimidazo[1,2-a]pyridine-3-carboxamide]", "MEC (minimal effective concentration)": 1.0}
{"smiles": "CCCC[C@H](CO)NC(=O)c1c(C)nc2c(OCc3c(F)ccc(F)c3F)cccn12", "note": "[Example 2]", "MEC (minimal effective concentration)": 0.03}
{"smiles": "Cc1nc2c(OCC3CCCCC3)cccn2c1C(=O)NC[C@@H](O)CO", "note": "[Example 80, 8-(cyclohexylmethoxy)-N-[(2R)-2,3-dihydroxypropyl]-2-methylimidazo[1,2-a]pyridine-3-carboxamide]", "MEC (minimal effective concentration)": 0.3}
{"smiles": "CC[C@@H](CO)NC(=O)c1c(C)nc2c(OCC3CCCCC3)cccn12", "note": "[Example 88, 8-(cyclohexylmethoxy)-N-[(2S)-1-hydroxybutan-2-yl]-2-methylimidazo[1,2-a]pyridine-3-carboxamide]", "MEC (minimal effective concentration)": 1.0}
{"smiles": "CCc1nc2c(OCC3CCC3)cccn2c1C(=O)N[C@@H](C)CO", "note": "[Example 58, 8-(cyclobutylmethoxy)-2-ethyl-N-[(2S)-1-hydroxypropan-2-yl]imidazo[1,2-a]pyridine-3-carboxamide formic acid salt]", "MEC (minimal effective concentration)": 3.0}
{"smiles": "Cc1cc(OCc2ncccc2F)c2nc(C)c(C(=O)NCC(O)C(F)(F)F)n2c1", "note": "(racemic) [Example 197, rac-8-[(3-fluoropyridin-2-yl)methoxy]-2,6-dimethyl-N-(3,3,3-trifluoro-2-hydroxypropyl)imidazo[1,2-a]pyridine-3-carboxamide]", "MEC (minimal effective concentration)": 3}
{"smiles": "CCCOCC(CO)NC(=O)c1c(C)nc2c(OCc3c(F)cccc3F)cccn12", "note": "(racemic) [Example 162, rac-8-[(2,6-Difluorobenzyl)oxy]-N-(1-hydroxy-3-propoxypropan-2-yl)-2-methylimidazo[1,2-a]-pyridine-3-carboxamide]", "MEC (minimal effective concentration)": 0.3}
{"smiles": "Cc1nc2c(OCC3CCC3)cccn2c1C(=O)NCCC1(O)CCCCC1", "note": "[Example 99, 8-(cyclobutylmethoxy)-N-[2-(1-hydroxycyclohexyl)ethyl]-2-methylimidazo[1,2-a]pyridine-3-carboxamide]", "MEC (minimal effective concentration)": 3.0}
{"smiles": "Cc1nc2c(OCc3c(F)cccc3F)cccn2c1C(=O)N[C@H]1CCC[C@@H]1O", "note": "[Example 19]", "MEC (minimal effective concentration)": 1.0}
{"smiles": "Cc1nc2c(OCc3c(F)cccc3F)cccn2c1C(=O)N[C@H]1c2ccccc2C[C@H]1O", "note": "[Example 40, 8-[(2,6-difluorobenzyl)oxy]-N-[(1S,2R)-2-hydroxy-2,3-dihydro-1H-inden-1-yl]-2-methylimidazo[1,2-a]pyridine-3-carboxamide]", "MEC (minimal effective concentration)": 0.1}
